Laboratory results published in the supplement of paper PMC10307832.

How the values were obtained:
Assay in all cases: relative viability (nuclei count vs DMSO), 5 days (fraction); higher = more cells survive
Tipifarnib + Pictilisib = compound: Cn1cncc1[C@@](N)(c1ccc(Cl)cc1)c1ccc2c(c1)c(-c1cccc(Cl)c1)cc(=O)n2C [Tipifarnib] + CS(=O)(=O)N1CCN(Cc2cc3nc(-c4cccc5[nH]ncc45)nc(N4CCOCC4)c3s2)CC1 [Pictilisib] (partner 1 µM)
Procedure, shortened: (§1)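 Lung cancer cell lines were pin-tool dosed in 1536-well plates on the day after seeding, with either a lone drug or a fixed anchor-drug dose plus five library-drug doses (not always all listed) in √10 steps. Nuclei were counted on 4× images after 5 days. Relative viability is the ratio of treated-well to vehicle-well nuclei counts, with each value a median of duplicate plates.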

Tipifarnib + Palbociclib = compound: Cn1cncc1[C@@](N)(c1ccc(Cl)cc1)c1ccc2c(c1)c(-c1cccc(Cl)c1)cc(=O)n2C [Tipifarnib] + CC(=O)c1c(C)c2cnc(Nc3ccc(N4CCNCC4)cn3)nc2n(C2CCCC2)c1=O [Palbociclib] (partner 0.5 µM)
Procedure, shortened: as §1

Tipifarnib + Foretinib = compound: Cn1cncc1[C@@](N)(c1ccc(Cl)cc1)c1ccc2c(c1)c(-c1cccc(Cl)c1)cc(=O)n2C [Tipifarnib] + COc1cc2c(Oc3ccc(NC(=O)C4(C(=O)Nc5ccc(F)cc5)CC4)cc3F)ccnc2cc1OCCCN1CCOCC1 [Foretinib] (partner 0.25 µM)
Procedure, shortened: as §1

Tipifarnib + Bortezomib = compound: Cn1cncc1[C@@](N)(c1ccc(Cl)cc1)c1ccc2c(c1)c(-c1cccc(Cl)c1)cc(=O)n2C [Tipifarnib] + CC(C)C[C@H](NC(=O)[C@H](Cc1ccccc1)NC(=O)c1cnccn1)B(O)O [Bortezomib] (partner 0.002 µM)
Procedure, shortened: as §1

NCI-H3122
relative viability (Tipifarnib + Pictilisib; first compound 0.01 µM): 0.6
relative viability (Tipifarnib + Pictilisib; first compound 0.03162 µM): 0.489
relative viability (Tipifarnib + Pictilisib; first compound 0.1 µM): 0.442
relative viability (Tipifarnib + Pictilisib; first compound 0.3162 µM): 0.347
relative viability (Tipifarnib + Pictilisib; first compound 1 µM): 0.27
relative viability (Tipifarnib + Palbociclib; first compound 0.01 µM): 0.193
relative viability (Tipifarnib + Palbociclib; first compound 0.03162 µM): 0.189
relative viability (Tipifarnib + Palbociclib; first compound 0.1 µM): 0.196
relative viability (Tipifarnib + Palbociclib; first compound 0.3162 µM): 0.179
relative viability (Tipifarnib + Palbociclib; first compound 1 µM): 0.14
relative viability (Tipifarnib + Foretinib; first compound 0.01 µM): 0.957
relative viability (Tipifarnib + Foretinib; first compound 0.03162 µM): 0.796
relative viability (Tipifarnib + Foretinib; first compound 0.1 µM): 0.744
relative viability (Tipifarnib + Foretinib; first compound 0.3162 µM): 0.693
relative viability (Tipifarnib + Foretinib; first compound 1 µM): 0.544
relative viability (Tipifarnib + Bortezomib; first compound 0.01 µM): 0.967
relative viability (Tipifarnib + Bortezomib; first compound 0.03162 µM): 0.976
relative viability (Tipifarnib + Bortezomib; first compound 0.1 µM): 0.986
relative viability (Tipifarnib + Bortezomib; first compound 0.3162 µM): 0.833
relative viability (Tipifarnib + Bortezomib; first compound 1 µM): 0.832

PC-3 [JPC-3]
relative viability (Tipifarnib + Pictilisib; first compound 0.01 µM): 0.811
relative viability (Tipifarnib + Pictilisib; first compound 0.03162 µM): 0.651
relative viability (Tipifarnib + Pictilisib; first compound 0.1 µM): 0.651
relative viability (Tipifarnib + Pictilisib; first compound 0.3162 µM): 0.44
relative viability (Tipifarnib + Pictilisib; first compound 1 µM): 0.508
relative viability (Tipifarnib + Palbociclib; first compound 0.01 µM): 0.458
relative viability (Tipifarnib + Palbociclib; first compound 0.03162 µM): 0.553
relative viability (Tipifarnib + Palbociclib; first compound 0.1 µM): 0.642
relative viability (Tipifarnib + Palbociclib; first compound 0.3162 µM): 0.497
relative viability (Tipifarnib + Palbociclib; first compound 1 µM): 0.495
relative viability (Tipifarnib + Foretinib; first compound 0.01 µM): 1.06
relative viability (Tipifarnib + Foretinib; first compound 0.03162 µM): 1.02
relative viability (Tipifarnib + Foretinib; first compound 0.1 µM): 0.955
relative viability (Tipifarnib + Foretinib; first compound 0.3162 µM): 0.749
relative viability (Tipifarnib + Foretinib; first compound 1 µM): 0.6
relative viability (Tipifarnib + Bortezomib; first compound 0.01 µM): 0.873
relative viability (Tipifarnib + Bortezomib; first compound 0.03162 µM): 0.629
relative viability (Tipifarnib + Bortezomib; first compound 0.1 µM): 0.698
relative viability (Tipifarnib + Bortezomib; first compound 0.3162 µM): 0.609
relative viability (Tipifarnib + Bortezomib; first compound 1 µM): 0.427

PC-14
relative viability (Tipifarnib + Pictilisib; first compound 0.01 µM): 0.656
relative viability (Tipifarnib + Pictilisib; first compound 0.03162 µM): 0.59
relative viability (Tipifarnib + Pictilisib; first compound 0.1 µM): 0.251
relative viability (Tipifarnib + Pictilisib; first compound 0.3162 µM): 0.169
relative viability (Tipifarnib + Pictilisib; first compound 1 µM): 0.173
relative viability (Tipifarnib + Palbociclib; first compound 0.01 µM): 0.42
relative viability (Tipifarnib + Palbociclib; first compound 0.03162 µM): 0.346
relative viability (Tipifarnib + Palbociclib; first compound 0.1 µM): 0.226
relative viability (Tipifarnib + Palbociclib; first compound 0.3162 µM): 0.15
relative viability (Tipifarnib + Palbociclib; first compound 1 µM): 0.163
relative viability (Tipifarnib + Foretinib; first compound 0.01 µM): 0.954
relative viability (Tipifarnib + Foretinib; first compound 0.03162 µM): 1.01
relative viability (Tipifarnib + Foretinib; first compound 0.1 µM): 0.912
relative viability (Tipifarnib + Foretinib; first compound 0.3162 µM): 0.602
relative viability (Tipifarnib + Foretinib; first compound 1 µM): 0.289
relative viability (Tipifarnib + Bortezomib; first compound 0.01 µM): 1
relative viability (Tipifarnib + Bortezomib; first compound 0.03162 µM): 0.873
relative viability (Tipifarnib + Bortezomib; first compound 0.1 µM): 0.555
relative viability (Tipifarnib + Bortezomib; first compound 0.3162 µM): 0.453
relative viability (Tipifarnib + Bortezomib; first compound 1 µM): 0.464

RERF-LC-KJ
relative viability (Tipifarnib + Pictilisib; first compound 0.01 µM): 0.551
relative viability (Tipifarnib + Pictilisib; first compound 0.03162 µM): 0.501
relative viability (Tipifarnib + Pictilisib; first compound 0.1 µM): 0.561
relative viability (Tipifarnib + Pictilisib; first compound 0.3162 µM): 0.347
relative viability (Tipifarnib + Pictilisib; first compound 1 µM): 0.328
relative viability (Tipifarnib + Palbociclib; first compound 0.01 µM): 1.22
relative viability (Tipifarnib + Palbociclib; first compound 0.03162 µM): 1.12
relative viability (Tipifarnib + Palbociclib; first compound 0.1 µM): 0.957
relative viability (Tipifarnib + Palbociclib; first compound 0.3162 µM): 0.813
relative viability (Tipifarnib + Palbociclib; first compound 1 µM): 0.784
relative viability (Tipifarnib + Foretinib; first compound 0.01 µM): 0.917
relative viability (Tipifarnib + Foretinib; first compound 0.03162 µM): 0.965
relative viability (Tipifarnib + Foretinib; first compound 0.1 µM): 0.799
relative viability (Tipifarnib + Foretinib; first compound 0.3162 µM): 0.773
relative viability (Tipifarnib + Foretinib; first compound 1 µM): 0.393
relative viability (Tipifarnib + Bortezomib; first compound 0.01 µM): 1.1
relative viability (Tipifarnib + Bortezomib; first compound 0.03162 µM): 1.1
relative viability (Tipifarnib + Bortezomib; first compound 0.1 µM): 0.85
relative viability (Tipifarnib + Bortezomib; first compound 0.3162 µM): 0.694
relative viability (Tipifarnib + Bortezomib; first compound 1 µM): 0.717

SK-LU-1
relative viability (Tipifarnib + Pictilisib; first compound 0.01 µM): 0.574
relative viability (Tipifarnib + Pictilisib; first compound 0.03162 µM): 0.568
relative viability (Tipifarnib + Pictilisib; first compound 0.1 µM): 0.424
relative viability (Tipifarnib + Pictilisib; first compound 0.3162 µM): 0.378
relative viability (Tipifarnib + Pictilisib; first compound 1 µM): 0.299
relative viability (Tipifarnib + Palbociclib; first compound 0.01 µM): 0.398
relative viability (Tipifarnib + Palbociclib; first compound 0.03162 µM): 0.353
relative viability (Tipifarnib + Palbociclib; first compound 0.1 µM): 0.393
relative viability (Tipifarnib + Palbociclib; first compound 0.3162 µM): 0.357
relative viability (Tipifarnib + Palbociclib; first compound 1 µM): 0.335
relative viability (Tipifarnib + Foretinib; first compound 0.01 µM): 0.877
relative viability (Tipifarnib + Foretinib; first compound 0.03162 µM): 0.723
relative viability (Tipifarnib + Foretinib; first compound 0.1 µM): 0.542
relative viability (Tipifarnib + Foretinib; first compound 0.3162 µM): 0.481
relative viability (Tipifarnib + Foretinib; first compound 1 µM): 0.477
relative viability (Tipifarnib + Bortezomib; first compound 0.01 µM): 1.12
relative viability (Tipifarnib + Bortezomib; first compound 0.03162 µM): 0.508
relative viability (Tipifarnib + Bortezomib; first compound 0.1 µM): 0.626
relative viability (Tipifarnib + Bortezomib; first compound 0.3162 µM): 0.614
relative viability (Tipifarnib + Bortezomib; first compound 1 µM): 0.36

SW 1573
relative viability (Tipifarnib + Pictilisib; first compound 0.01 µM): 0.492
relative viability (Tipifarnib + Pictilisib; first compound 0.03162 µM): 0.426
relative viability (Tipifarnib + Pictilisib; first compound 0.1 µM): 0.397
relative viability (Tipifarnib + Pictilisib; first compound 0.3162 µM): 0.289
relative viability (Tipifarnib + Pictilisib; first compound 1 µM): 0.236
relative viability (Tipifarnib + Palbociclib; first compound 0.01 µM): 0.427
relative viability (Tipifarnib + Palbociclib; first compound 0.03162 µM): 0.239
relative viability (Tipifarnib + Palbociclib; first compound 0.1 µM): 0.211
relative viability (Tipifarnib + Palbociclib; first compound 0.3162 µM): 0.183
relative viability (Tipifarnib + Palbociclib; first compound 1 µM): 0.186
relative viability (Tipifarnib + Foretinib; first compound 0.01 µM): 1.12
relative viability (Tipifarnib + Foretinib; first compound 0.03162 µM): 0.873
relative viability (Tipifarnib + Foretinib; first compound 0.1 µM): 0.657
relative viability (Tipifarnib + Foretinib; first compound 0.3162 µM): 0.498
relative viability (Tipifarnib + Foretinib; first compound 1 µM): 0.173
relative viability (Tipifarnib + Bortezomib; first compound 0.01 µM): 1.13
relative viability (Tipifarnib + Bortezomib; first compound 0.03162 µM): 0.752
relative viability (Tipifarnib + Bortezomib; first compound 0.1 µM): 0.691
relative viability (Tipifarnib + Bortezomib; first compound 0.3162 µM): 0.45
relative viability (Tipifarnib + Bortezomib; first compound 1 µM): 0.49

UMC-11
relative viability (Tipifarnib + Pictilisib; first compound 0.01 µM): 0.676
relative viability (Tipifarnib + Pictilisib; first compound 0.03162 µM): 0.511
relative viability (Tipifarnib + Pictilisib; first compound 0.1 µM): 0.495
relative viability (Tipifarnib + Pictilisib; first compound 0.3162 µM): 0.445
relative viability (Tipifarnib + Pictilisib; first compound 1 µM): 0.31
relative viability (Tipifarnib + Palbociclib; first compound 0.01 µM): 0.342
relative viability (Tipifarnib + Palbociclib; first compound 0.03162 µM): 0.306
relative viability (Tipifarnib + Palbociclib; first compound 0.1 µM): 0.295
relative viability (Tipifarnib + Palbociclib; first compound 0.3162 µM): 0.273
relative viability (Tipifarnib + Palbociclib; first compound 1 µM): 0.262
relative viability (Tipifarnib + Foretinib; first compound 0.01 µM): 0.856
relative viability (Tipifarnib + Foretinib; first compound 0.03162 µM): 0.725
relative viability (Tipifarnib + Foretinib; first compound 0.1 µM): 0.612
relative viability (Tipifarnib + Foretinib; first compound 0.3162 µM): 0.616
relative viability (Tipifarnib + Foretinib; first compound 1 µM): 0.578
relative viability (Tipifarnib + Bortezomib; first compound 0.01 µM): 0.667
relative viability (Tipifarnib + Bortezomib; first compound 0.03162 µM): 0.498
relative viability (Tipifarnib + Bortezomib; first compound 0.1 µM): 0.465
relative viability (Tipifarnib + Bortezomib; first compound 0.3162 µM): 0.447
relative viability (Tipifarnib + Bortezomib; first compound 1 µM): 0.242
